Patent US20130122127A1, “Extract of Coptidis Rhizoma and novel use thereof in treating respiratory disease” (AHN-GOOK PHARMACEUTICAL CO., LTD., priority 2008, published 2013)
Values joined by “and” are separate entries in the source; they are usually repeats but may differ in a detail not shown here. Identical values can stand only once.

Tests used:
male mouse = assay: Expectorant activity, phenol red secretion method in mouse; assay type: in vivo
Protocol: In order to measure expectorant activities of Coptidis Rhizoma extracts of the Examples 1-1 to 1-3, experiment was conducted using Engler et al. method ([…]. Pharmacol. Moth. 11, 151 157, 1984, Bao-quin Lin et., Pulmonary Pharmacology & Therapeutics 21, 259 263, 2008.) in the following procedure. A positive control drug (ambroxol, Sigma) and test drugs (Coptidis Rhizoma extract of Examples 1-1 to 1-3) were orally administered to a male mouse (8-weeks age, Sam tako BioKorea), and after 30 minutes, 500 mg/kg of phenol red was intraperitoneally injected (phenol red was dissolved in saline). After 30 minutes, the mouse was anesthetized with diethyl ether, exsanguinated by cutting the abdominal aorta, and then the whole trachea was resected. […] In order to evaluate expectorant activities of the combined extract and single extract prepared in the Example 2 (2-1 to 2-11), experiment was conducted by the same method as described in [Experiment method] of Experiment 3-1, using Engler, et al. method ([…]. Pharmacol. Moth. 11, 151 157, 1984., Bao-quin Lin et., Pulmonary Pharmacology & Therapeutics 21, 259 263, 2008.), of which results are shown in FIG. 2.

peritoneal mast cell = assay: Antihistamine activity, compound 48/80-induced histamine release from peritoneal mast cells of ovalbumin-sensitized rat; assay type: cell-based; settings: oral dosage 5 mg/kg
Protocol: In order to measure antihistamine activity of Coptidis Rhizoma extract of Examples 1-1 to 1-3, experiment was conducted using Honuchi et al. method (Masako Honuchi and Yoshiyuki Seyama, J. Health Sci., 52(6), 711˜717, 2006., Naoki Inagaki et al. Biol. Pharm. Bull. 24(7), 829˜834, 2001.) in the following procedure.
Antihistamine effect was measured using peritoneal mast cell of a male rat (7-weeks age, Sam tako BioKorea) sensitized with ovalbumin As positive control, Ketotifen (Sigma) was used. To a rat sensitized with ovalbumin, Ketotifen was orally administered at a concentration of 5 mg/kg, and test drugs were orally administered respectively at a concentration of 200 mg/kg for 4 days, and then, peritoneal mast cells were separated. The separated peritoneal mast cells (2×10^5 cells/ml) were treated with Ketotifen at concentrations of 0.01 mg/ml, 0.1 mg/ml, and 1.0 mg/ml, and test drugs at concentrations of 0.1 mg/ml, 1.0 mg/ml, and 10 mg/ml. Finally, the mast cells were treated with compound 48/80 (Sigma) which activates non-immunological histamine release at a concentration of 10 μg/ml. At this time, the amount of histamine released from mast cells was quantified to examine whether the test materials suppress release of histamine from the mast cells. The relative amount of histamine released from mast cell in a rat to which no drug was administered was measured, of which results are presented in the following Table 5.
In order to measure antihistamine activities of 5 sub-fractions prepared in the above Example 1-4, the same experiment was conducted as the above Experiment 3-3, of which results are presented in the following Table 8.
In order to measure antihistamine effect of ivy leaf extract, and combined extract of Coptidis Rhizoma with ivy leaf (Examples 2-1 to 2-11) prepared in Example 2 in mast cell, experiment was conducted by the same method as described in [Experiment method] in Experiment 3-3 using Honuchi et al. method (Masako Honuchi and Yoshiyuki Seyama, J. Health Sci., 52(6), 711˜717, 2006., Naoki Inagaki et. Biol. Pharm. Bull. 24(7), 829˜834, 2001.), of which results are presented in the following Table 13.

male guinea pig = assay: Antitussive activity, citric acid-induced cough in guinea pig; assay type: in vivo; settings: oral 50 mg/kg, 0.2M citric acid
Protocol: In order to measure antitussive activity of Coptidis Rhizoma extracts of Examples 1-1 to 1-3, experiment was conducted using Tanaka et al. method (Motomu Tanaka and Kei Maruyama., J. Pharmacol. Sci. 93, 465˜470, 2003., Daoui, Cognon, Naline et., Am. J. Respir. Crit. Care. Med. 158, 42˜48, 1998) in the following procedure.
A test drug was orally administered to a male guinea pig (6-weeks age, Sam tako BioKorea), and after 1 hour, the guinea pig was put in a plethysmograph chamber (Buxco, U.S.A.), and then, a cough inducer, citric acid (Sigma) was nebulized to induce cough. As positive control, theobromine (Sigma) which is used as an antitussive was used. And, the guinea pig was exposed to 0.2M citric acid for 10 minutes, and the number of coughs occurred was measured for 15 minutes.
In order to measure antitussive activities of 5 sub-fractions prepared in the above Example 1-4, experiment for antitussive activity was conducted by the same method as Experiment 3-2, of which results are presented in the following Table 7. […]

[1] = system: OVA-sensitized Balb/c mouse; assay: Murine asthma model: airway hyper-responsiveness (AHR) to methacholine; assay type: in vivo; settings: 30 mg/kg oral, Day 14-20
Protocol: (§1) And, for evaluation, examination of airway hyper-responsiveness (AHR) for methacholine, examination of IgE value in blood plasma, examination of the number of cells and the distribution of white blood cells in bronchoalveolar lavage fluid (BALF), observation of pulmonary tissue, and RT-PCR (IL-1β, IL-4, IL-13r2a) were conducted.
(§2) To a Balb/c mouse (18˜21 g, Orientbio Inc.), an ovalbumin (OVA, Sigma) solution prepared for intraperitoneal injection was intraperitoneally administered in an amount of 500 ul (20 ug as OVA) per one mouse at Day 0 and Day 7, and it was sensitized with a solution prepared for OVA inhalation using a nebulizer (NE-U17, OMRON Co. Ltd, Japan) and then, the prepared 5% OVA solution was inhaled everyday for 30 minutes from Day 14 to Day 20. As positive control drug, 30 mg/kg of montelukast sodium was used, and all the experiment materials were used in an amount of 200 mg/kg. And, positive control drug and the experiment materials were orally administered everyday one hour before OVA inhalation for 7 days of from Day 14 to Day 20 after sensitization, and then, experiments were conducted by the following evaluation items.
24 hours after final inhalation of OVA (at Day 21), the mouse was put in a whole body plethysmograph (BUXCO, USA), each 0.4 ml of methacholine solutions of concentrations of 0, 10 and 20 mg/ml were taken to introduce in an aerosol, and inhaled to the mouse respectively for 3 minutes. And, Penh were measured for 4 minutes from the inhalation time, and the average value was set as Penh (enhanced pause) at corresponding dosage of methacholine.

immunoglobulin E (IgE) = assay: Murine asthma model: IgE value in blood plasma (ELISA); assay type: in vivo, mouse; settings: Day 21, 30 mg/kg oral
Protocol: as §1
as §2, with “And, positive control drug and the experiment materials were orally administered everyday one hour before OVA inhalation for 7 days of from Day 14 to Day 20 after sensitization, and then, experiments were conducted by the following evaluation items.” left out
For the animal measured according to 1), about 0.05 ml of blood was collected by orbital blood sampling and centrifuged, and the obtained plasma was divided into two parts and diluted to 1:10 to examine immunoglobulin E (IgE) value in plasma through IgE enzyme linked immunosorbent assay (ELISA; IgE ELISA kit for mouse, ME-151, SHIBAYAGI Co., Ltd., JAPAN).

[2] = system: neutrophils and eosinophils in BALF; assay: Murine asthma model: number of cells in bronchoalveolar lavage fluid (BALF); assay type: in vivo, mouse; settings: Day 22, 30 mg/kg oral
Protocol: as §1
as §2, with “And, positive control drug and the experiment materials were orally administered everyday one hour before OVA inhalation for 7 days of from Day 14 to Day 20 after sensitization, and then, experiments were conducted by the following evaluation items.” left out
To the animals whose blood was sampled according to 2), sodium pentothal (50 mg/kg) was injected intraperitoneally to anesthetize it. […] For the suspension, the numbers of total leucocytes, neutrophils, eosinophils and lymphocytes were measured using automated hematology analyzers (Advia 120 coulter counter, BAYER, Germany).

pulmonary tissue = assay: Murine asthma model: observation of pulmonary tissue; assay type: in vivo, mouse; settings: score 1=No, 2=slight, 3=thin, 4=moderate, 5=thick; 30 mg/kg oral
Protocol: as §1, §2
The left lung fixed with a nipper was taken off and fixed with a 10% formalin solution for one day, and then, paraffin-penetrated tissue using a tissue processor was cut to a thickness of 3-4 um using a microtome to make tissue fragments. […]

IL-1β = assay: Murine asthma model: RT-PCR of lung tissue, IL-1β; assay type: in vivo, mouse; settings: band density divided by actin density, 30 mg/kg oral
Protocol: as §1
as §2, with “And, positive control drug and the experiment materials were orally administered everyday one hour before OVA inhalation for 7 days of from Day 14 to Day 20 after sensitization, and then, experiments were conducted by the following evaluation items.” left out
(§3) Right pulmonary tissue was rapidly taken off and stored at −80° C. before experiment. RNA was separated from the tissue using RNA-Bee (Tel-Test Inc. USA), and the separated RNA was quantified at 260 nm using a spectrometer, and then, 4 ug of RNA and Oligo dT 2 ul (Promega), DEPC water were added to make 10 ul and the mixture was reacted at 65 r for 5 minutes. […]

IL-4 = assay: Murine asthma model: RT-PCR of lung tissue, IL-4; assay type: in vivo, mouse; settings: band density divided by actin density, 30 mg/kg oral
Protocol: as §1
as §2, with “And, positive control drug and the experiment materials were orally administered everyday one hour before OVA inhalation for 7 days of from Day 14 to Day 20 after sensitization, and then, experiments were conducted by the following evaluation items.” left out
as §3

IL-13r2a = assay: Murine asthma model: RT-PCR of lung tissue, IL-13r2a; assay type: in vivo, mouse; settings: band density divided by actin density, 30 mg/kg oral
Protocol: as §1
as §2, with “And, positive control drug and the experiment materials were orally administered everyday one hour before OVA inhalation for 7 days of from Day 14 to Day 20 after sensitization, and then, experiments were conducted by the following evaluation items.” left out
as §3

Nc1c(Br)cc(Br)cc1CN[C@H]1CC[C@H](O)CC1 [Ambroxol, ambroxol]
Capacity to discharge sputum (%) (male mouse; oral 250 mg/kg): 34% | Capacity to secrete sputum (%) (male mouse; oral 250 mg/kg, 250 mg/kg): 32% and 30%

COc1ccc2cc3[n+](cc2c1OC)CCc1cc2c(cc1-3)OCO2 [Berberine, berberine]
Capacity to discharge sputum (%) (male mouse; oral 125 mg/kg): 39%

CN1CCC(=C2c3ccccc3CC(=O)c3sccc32)CC1 [Ketotifen]
Histamine release amount (%) (peritoneal mast cell; mast cell treatment 0 mg/ml): 43% and 44% | Histamine release amount (%) (peritoneal mast cell; mast cell treatment 0.01 mg/ml): 41% | Histamine release amount (%) (peritoneal mast cell; mast cell treatment 0.1 mg/ml): 32% | Histamine release amount (%) (peritoneal mast cell; mast cell treatment 1.0 mg/ml): 18% and 19%

Cn1cnc2c1c(=O)[nH]c(=O)n2C [Theobromine, theobromine]
Capacity to suppress cough (%) (male guinea pig): 57% and 56%

CC(C)(O)c1ccccc1CC[C@@H](SCC1(CC(=O)O)CC1)c1cccc(/C=C/c2ccc3ccc(Cl)cc3n2)c1 [montelukast, montelukast sodium]
Penh value according to methacholine dosage ([1]; methacholine 0 mg/ml): 1.5 ± 0.2 | Penh value according to methacholine dosage ([1]; methacholine 10 mg/ml): 8.4 ± 2.4 | Penh value according to methacholine dosage ([1]; methacholine 20 mg/ml): 19.8 ± 5.4 | IgE level (immunoglobulin E (IgE)): 13.7 ± 5.7 ng/mL | WBC EOS (eosinophil) [2]: 466.0 ± 207.0 ×10^3 cells | WBC NEU (neutrophil) [2]: 22.3 ± 7.2 ×10^3 cells | Microscope observation: Degree of infiltration of inflammatory cells (pulmonary tissue): 3.7 ± 0.5 | Microscope observation: Degree of occlusion of bronchus (pulmonary tissue): 3.5 ± 0.5 | Degree of cytokine expression IL-1β (IL-1β): 0.51 ± 0.26 | Degree of cytokine expression IL-4 (IL-4): 1.47 ± 0.48 | Degree of cytokine expression IL-13r2a (IL-13r2a): 0.37 ± 0.31
